What follows are molecules tested on P388 (assay: Cytotoxicity against mouse P388 cells).
Format: functional, cell-based
`CC(=O)O[C@@H]1CC[C@@]2(C)[C@@H](CC[C@]3(C)/C(=C(\C)C(=O)/C=C/C(C)=C/C=C/C(C)(C)O)C(=O)C[C@@H]23)[C@@]1(C)C(=O)[O-].[Na+]` [GLOBOSTELLATIC ACID A] was tested, and the IC50 was 0.1 µg/mL. Work on `COC(/C=C/C(C)(C)O)/C(C)=C/C=C/C(C)=C1\C(=O)C[C@H]2[C@@]3(C)CC[C@@H](OC(C)=O)[C@](C)(C(=O)[O-])[C@@H]3CC[C@]12C.[Na+]` (some centres undefined) [GLOBOSTELLATIC ACID B] yielded an IC50 of 0.1 µg/mL. Work on `COC(/C=C/C(C)=C/C=C/C(C)=C1\C(=O)C[C@H]2[C@@]3(C)CC[C@@H](OC(C)=O)[C@](C)(C(=O)[O-])[C@@H]3CC[C@]12C)C(C)(C)O.[Na+]` (some centres undefined) [GLOBOSTELLATIC ACID C] yielded an IC50 of 0.46 µg/mL. `COC(/C=C/C(C)=C/C=C/C(C)=C1\C(=O)C[C@H]2[C@@]3(C)CC[C@@H](O)[C@](C)(C(=O)[O-])[C@@H]3CC[C@]12C)C(C)(C)O.[Na+]` (some centres undefined) [GLOBOSTELLATIC ACID D] was tested, and the IC50 was 0.1 µg/mL.
